From patent US12077503B2, “Substituted cyclic amides and their use as herbicides” (FMC CORPORATION, priority 2015, dated 2024)

How the values were obtained:
Type in all cases: in vivo
[1] = tested on: barnyardgrass (Echinochloa crus-galli); assay: Test B flooded paddy test; details: Echinochloa crus-galli, 360 h, Flood, 250 g ai/ha; visually evaluated after 13 to 15 d; read-out: Plant response rating, Barnyardgrass (0 to 100 scale where 0 is no effect and 100 is complete control)
Outline: (§1)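 Visual ratings (0 none to 100 complete control) are relative to untreated plants, taken 13–15 d after treatment in a greenhouse. Test material went straight into floodwater standing 3 cm above the soil, kept constant, on plants at the 2-leaf stage.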

rice (Oryra sativa) = assay: Test B flooded paddy test; details: Oryza sativa, 360 h, Flood, 250 g ai/ha; visually evaluated after 13 to 15 d; read-out: Plant response rating, Rice (0 to 100 scale where 0 is no effect and 100 is complete control)
Outline: as §1

[2] = tested on: ducksalad (Heteranthera limosa); assay: Test B flooded paddy test; details: Heteranthera limosa, 360 h, Flood, 250 g ai/ha; visually evaluated after 13 to 15 d; read-out: Plant response rating, Ducksalad (0 to 100 scale where 0 is no effect and 100 is complete control)
Outline: as §1

[3] = tested on: sedge, umbrella (small-flower umbrella sedge, Cyperus difformis); assay: Test B flooded paddy test; details: Cyperus difformis, 360 h, Flood, 250 g ai/ha; visually evaluated after 13 to 15 d; read-out: Plant response rating, Sedge, Umbrella (0 to 100 scale where 0 is no effect and 100 is complete control)
Outline: as §1

[4] = tested on: blackgrass (Alopecurus myosuroides); assay: Test A postemergence; details: Alopecurus myosuroides, post-emergence, 240 h, Postemergence
Outline: (§2)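 Visual injury, scored on a 0–100 scale relative to untreated controls, was recorded about 10 d after application. Treatments were a preemergence soil spray over planted seeds or a postemergence spray on plants at the one- to two-leaf stage, 2 to 10 cm tall, all in loam soil–sand blend in the greenhouse.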

[5] = tested on: barnyardgrass (Echinochloa crus-galli); assay: Test A postemergence; details: Echinochloa crus-galli, post-emergence, 240 h, Postemergence
Outline: as §2

Kochia (Kochia scoparia) [6] = assay: Test A postemergence; details: Bassia scoparia, post-emergence, 240 h, Postemergence
Outline: as §2

[7] = tested on: pigweed (Amaranthus retroflexus); assay: Test A postemergence; details: Amaranthus retroflexus, post-emergence, 240 h, Postemergence
Outline: as §2

[8] = tested on: wheat (Triticum aestivum); assay: Test A postemergence; details: Triticum aestivum, post-emergence, 240 h, Postemergence
Outline: as §2

[9] = tested on: giant foxtail (Setaria faberii); assay: Test A postemergence; details: Setaria faberi, post-emergence, 240 h, Postemergence
Outline: as §2

[10] = tested on: ragweed (common ragweed, Ambrosia elatior); assay: Test A postemergence; details: Ambrosia artemisiifolia, post-emergence, 240 h, Postemergence
Outline: as §2

corn (Zea mays) = assay: Test A postemergence; details: Zea mays, post-emergence, 240 h, Postemergence
Outline: as §2

[11] = tested on: Galium (catchweed bedstraw, Galium aparine); assay: Test A postemergence; details: Galium, post-emergence, 240 h, Postemergence
Outline: as §2

[12] = tested on: ryegrass, Italian (Italian ryegrass, Lolium multiflorum); assay: Test A postemergence; details: Lolium multiflorum, post-emergence, 240 h, Postemergence
Outline: as §2

[13] = tested on: barnyardgrass (Echinochloa crus-galli); assay: Test A preemergence; details: Echinochloa crus-galli, pre-emergence, 240 h, Preemergence
Outline: as §2

Kochia (Kochia scoparia) [14] = assay: Test A preemergence; details: Bassia scoparia, pre-emergence, 240 h, Preemergence
Outline: as §2

[15] = tested on: pigweed (Amaranthus retroflexus); assay: Test A preemergence; details: Amaranthus retroflexus, pre-emergence, 240 h, Preemergence
[16] = tested on: giant foxtail (Setaria faberii); assay: Test A preemergence; details: Setaria faberi, pre-emergence, 240 h, Preemergence
Outline: as §2

[17] = tested on: ragweed (common ragweed, Ambrosia elatior); assay: Test A preemergence; details: Ambrosia artemisiifolia, pre-emergence, 240 h, Preemergence
Outline: as §2

[18] = tested on: ryegrass, Italian (Italian ryegrass, Lolium multiflorum); assay: Test A preemergence; details: Lolium multiflorum, pre-emergence, 240 h, Preemergence
Outline: as §2

`Cc1ccc([C@H]2CN(C)C(=O)[C@@H]2C(=O)Nc2cccnc2F)cc1` [Compound 1398] gave a pest or weed control at 250 g/ha [1] of 80%, a pest or weed control at 250 g/ha (rice (Oryra sativa)) of 15% and a pest or weed control at 250 g/ha [2] of 100%. The pest or weed control at 250 g/ha [3] was 0%, the pest or weed control at 31 g/ha ([4]; 31 g ai/ha, 0 is no effect, 100 is complete control, read-out: Blackgrass plant response rating (0 to 100 scale)) was 20% and the pest or weed control at 125 g/ha ([4]; 125 g ai/ha, visual injury after approx. 10 d, 0 to 100 scale, 0 no effect, 100 complete control, read-out: Plant response rating, Blackgrass) was 60%. The pest or weed control at 31 g/ha ([5]; 31 g ai/ha, 0 is no effect, 100 is complete control, read-out: Barnyardgrass plant response rating (0 to 100 scale)) was 90%, the pest or weed control at 125 g/ha ([5]; 125 g ai/ha, visual injury after approx. 10 d, 0 to 100 scale, 0 no effect, 100 complete control, read-out: Plant response rating, Barnyardgrass) was 100% and the pest or weed control at 31 g/ha (Kochia (Kochia scoparia) [6]; 31 g ai/ha, 0 is no effect, 100 is complete control, read-out: Kochia plant response rating (0 to 100 scale)) was 20%. The pest or weed control at 125 g/ha (Kochia (Kochia scoparia) [6]; 125 g ai/ha, visual injury after approx. 10 d, 0 to 100 scale, 0 no effect, 100 complete control, read-out: Plant response rating, Kochia) was 60%, the pest or weed control at 31 g/ha ([7]; 31 g ai/ha, 0 is no effect, 100 is complete control, read-out: Pigweed plant response rating (0 to 100 scale)) was 0% and the pest or weed control at 125 g/ha ([7]; 125 g ai/ha, visual injury after approx. 10 d, 0 to 100 scale, 0 no effect, 100 complete control, read-out: Plant response rating, Pigweed) was 0%. It also gave a plant injury at 31 g/ha ([8]; 31 g ai/ha, 0 is no effect, 100 is complete control, read-out: Wheat plant response rating (0 to 100 scale)) of 0%, a plant injury at 125 g/ha ([8]; 125 g ai/ha, visual injury after approx. 10 d, 0 to 100 scale, 0 no effect, 100 complete control, read-out: Plant response rating, Wheat) of 60% and a pest or weed control at 31 g/ha ([9]; 31 g ai/ha, 0 is no effect, 100 is complete control, read-out: Foxtail, Giant plant response rating (0 to 100 scale)) of 90%. The pest or weed control at 125 g/ha ([9]; 125 g ai/ha, visual injury after approx. 10 d, 0 to 100 scale, 0 no effect, 100 complete control, read-out: Plant response rating, Foxtail, Giant) was 90%, the pest or weed control at 31 g/ha ([10]; 31 g ai/ha, 0 is no effect, 100 is complete control, read-out: Ragweed plant response rating (0 to 100 scale)) was 0% and the pest or weed control at 125 g/ha ([10]; 125 g ai/ha, visual injury after approx. 10 d, 0 to 100 scale, 0 no effect, 100 complete control, read-out: Plant response rating, Ragweed) was 30%. The plant injury at 31 g/ha (corn (Zea mays); 31 g ai/ha, 0 is no effect, 100 is complete control, read-out: Corn plant response rating (0 to 100 scale)) was 0%, the Corn plant response rating (crop injury, 0 = no effect, 100 = complete kill) at 125 g/ha (corn (Zea mays); 125 g ai/ha, visual injury after approx. 10 d, 0 to 100 scale, 0 no effect, 100 complete control) was 40% and the pest or weed control at 31 g/ha ([11]; 31 g ai/ha, 0 is no effect, 100 is complete control, read-out: Galium plant response rating (0 to 100 scale)) was 30%. For the same compound, the pest or weed control at 125 g/ha ([11]; 125 g ai/ha, visual injury after approx. 10 d, 0 to 100 scale, 0 no effect, 100 complete control, read-out: Plant response rating, Galium) was 50%, the pest or weed control at 31 g/ha ([12]; 31 g ai/ha, 0 is no effect, 100 is complete control, read-out: Ryegrass, Italian plant response rating (0 to 100 scale)) was 0% and the pest or weed control at 125 g/ha ([12]; 125 g ai/ha, visual injury after approx. 10 d, 0 to 100 scale, 0 no effect, 100 complete control, read-out: Plant response rating, Ryegrass, Italian) was 40%. For the same compound, the pest or weed control at 31 g/ha ([13]; 31 g ai/ha, 0 to 100 scale where 0 is no effect and 100 is complete control, read-out: Barnyardgrass plant response rating) was 100%, the pest or weed control at 125 g/ha ([13]; 125 g ai/ha, 0 to 100 scale (0 no effect, 100 complete control), read-out: Plant response rating, Barnyardgrass) was 100% and the pest or weed control at 31 g/ha (Kochia (Kochia scoparia) [14]; 31 g ai/ha, 0 to 100 scale where 0 is no effect and 100 is complete control, read-out: Kochia plant response rating) was 100%. It also gave a pest or weed control at 125 g/ha (Kochia (Kochia scoparia) [14]; 125 g ai/ha, 0 to 100 scale (0 no effect, 100 complete control), read-out: Plant response rating, Kochia) of 90%, a pest or weed control at 31 g/ha ([15]; 31 g ai/ha, 0 to 100 scale where 0 is no effect and 100 is complete control, read-out: Pigweed plant response rating) of 0% and a pest or weed control at 125 g/ha ([15]; 125 g ai/ha, 0 to 100 scale (0 no effect, 100 complete control), read-out: Plant response rating, Pigweed) of 50%. The pest or weed control at 31 g/ha ([16]; 31 g ai/ha, 0 to 100 scale where 0 is no effect and 100 is complete control, read-out: Foxtail, Giant plant response rating) was 100%, the pest or weed control at 125 g/ha ([16]; 125 g ai/ha, 0 to 100 scale (0 no effect, 100 complete control), read-out: Plant response rating, Foxtail, Giant) was 100% and the pest or weed control at 31 g/ha ([17]; 31 g ai/ha, 0 to 100 scale where 0 is no effect and 100 is complete control, read-out: Ragweed plant response rating) was 50%. The pest or weed control at 125 g/ha ([17]; 125 g ai/ha, 0 to 100 scale (0 no effect, 100 complete control), read-out: Plant response rating, Ragweed) was 90%, the pest or weed control at 31 g/ha ([18]; 31 g ai/ha, 0 to 100 scale where 0 is no effect and 100 is complete control, read-out: Ryegrass, Italian plant response rating) was 0% and the pest or weed control at 125 g/ha ([18]; 125 g ai/ha, 0 to 100 scale (0 no effect, 100 complete control), read-out: Plant response rating, Ryegrass, Italian) was 70%.
